Assay results taken from US20160168147A1, “ISOTOPICALLY ENRICHED AZAINDOLES” (Vertex Pharmaceuticals Incorporated, priority 2013, published 2016).

System: Cryopreserved Human Hepatocytes
Assay: Assessment of metabolite profile and kinetic isotope effect in human hepatocytes (Example 6)
Assay type: in vitro ADME
Conditions: 3 μM and 10 μM, sampled at 120 minutes, LC-MS MRM
Protocol: Cryopreserved Human Hepatocytes lot TFF (purchased from Celsis) were used. Hepatocytes were thawed using CHRM and suspended in Williams E media containing cell maintenance supplement package. 1000 μL of a final cell concentration 1 million cells/mL were placed in individual incubation wells (24-well plate set-up). Incubation was conducted at 37° C. and kept in a CO2/O2 humidified incubator. 10 μL of compound stock was spiked into cell the matrix to achieve final incubation concentrations of 3 μM and 10 μM. The matrix was swirled prior to the removal of each time-point and 50 μL of sample were removed and added to 200 μL of acetonitrile containing internal standard, IS. Time-points were sampled at 120 minutes using MRM on an ABSciex API5500-QTrap paired with an Agilent 1290 UPLC and a CTC PAL autosampler. A 20-minute gradient method using a HALO C18 2.1×50 mm 2.7 μm column made by Advanced Materials Technology was used for the analysis. /

new metabolites observed: no new metabolites were observed
Structure (SMILES): [2H]c1[nH]c2ncccc2c1-c1nccc(N[C@](C)(CC)C(=O)NCC(F)(F)F)n1 [Compound 1-a, (2R)-2-[[2-(2-deuterio-1H-pyrrolo[2,3-b]pyridin-3-yl)pyrimidin-4-yl]amino]-2-methyl-N-(2.2.2-trifluoroethyl)butanamide]
